Laboratory results reported in ChEMBL document CHEMBL1201862, “PubChem BioAssay data set” (2004).
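1) Cells in 96-well plates. 2) Compound, 48 h, 5 concentrations. 3) Linear interpolation between surrounding doses. 4) Unreached endpoint = highest concentration. At the GI50, growth is halved.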 Calls of active or inactive are those of the source. Cut-off read from the data, not from the text of the source: active = GI50 up to about 1.1 µM and inactive = higher.

Legend:
Test in all cases: NCI tumour cell line growth inhibition, 48 h
786-0 = system: 786-0
A549 = system: A549
ACHN = system: ACHN
CAKI-1 = system: CAKI-1
CCRF-CEM = system: CCRF-CEM
COLO 205 = system: COLO 205
DLD-1 = system: DLD-1
DMS-273 = system: DMS-273
EKVX = system: EKVX
HCC 2998 = system: HCC 2998
HCT-116 = system: HCT-116
HCT-15 = system: HCT-15
HL-60 = system: HL-60
HOP-18 = system: HOP-18
HT-29 = system: HT-29
IGROV-1 = system: IGROV-1
K562 = system: K562
KM12 = system: KM12
LXFL 529 = system: LXFL 529
M14 = system: M14
M19-MEL = system: M19-MEL
MOLT-4 = system: MOLT-4
Malme-3M = system: Malme-3M
NCI-H226 = system: NCI-H226
NCI-H23 = system: NCI-H23
NCI-H460 = system: NCI-H460
NCI-H522 = system: NCI-H522
OVCAR-3 = system: OVCAR-3
OVCAR-4 = system: OVCAR-4
OVCAR-5 = system: OVCAR-5
OVCAR-8 = system: OVCAR-8
RPMI-8226 = system: RPMI-8226
SF-268 = system: SF-268
SF-295 = system: SF-295
SF-539 = system: SF-539
SK-MEL-28 = system: SK-MEL-28
SK-MEL-2 = system: SK-MEL-2
SK-MEL-5 = system: SK-MEL-5
SK-OV-3 = system: SK-OV-3
SN12C = system: SN12C
SNB-75 = system: SNB-75
SNB-78 = system: SNB-78
TK-10 = system: TK-10
U-251 = system: U-251
UACC-257 = system: UACC-257
UO-31 = system: UO-31
XF498 = system: XF498

SMILES: CCCN(CCC)c1c([N+](=O)[O-])cc(C(=O)N(CCO)CCO)cc1[N+](=O)[O-]
- GI50 (786-0): > 100 µM (inactive)
- GI50 (A549): > 100 µM (inactive)
- GI50 (ACHN): > 100 µM (inactive)
- GI50 (CAKI-1): > 100 µM (inactive)
- GI50 (CCRF-CEM): > 100 µM (inactive)
- GI50 (COLO 205): > 100 µM (inactive)
- GI50 (DLD-1): > 100 µM (inactive)
- GI50 (DMS-273): > 100 µM (inactive)
- GI50 (EKVX): 57.4 µM (inactive)
- GI50 (HCC 2998): > 100 µM (inactive)
- GI50 (HCT-116): > 100 µM (inactive)
- GI50 (HCT-15): > 100 µM
- GI50 (HL-60): > 100 µM (inactive)
- GI50 (HOP-18): > 100 µM (inactive)
- GI50 (HT-29): > 100 µM (inactive)
- GI50 (IGROV-1): > 100 µM (inactive)
- GI50 (K562): 61.4 µM (inactive)
- GI50 (KM12): > 100 µM (inactive)
- GI50 (LXFL 529): > 100 µM (inactive)
- GI50 (M14): > 100 µM (inactive)
- GI50 (M19-MEL): > 100 µM (inactive)
- GI50 (MOLT-4): > 100 µM (inactive)
- GI50 (Malme-3M): > 100 µM (inactive)
- GI50 (NCI-H226): > 100 µM (inactive)
- GI50 (NCI-H23): > 100 µM (inactive)
- GI50 (NCI-H460): > 100 µM (inactive)
- GI50 (NCI-H522): > 100 µM (inactive)
- GI50 (OVCAR-3): > 100 µM (inactive)
- GI50 (OVCAR-4): > 100 µM (inactive)
- GI50 (OVCAR-5): > 100 µM (inactive)
- GI50 (OVCAR-8): > 100 µM (inactive)
- GI50 (RPMI-8226): > 100 µM (inactive)
- GI50 (SF-268): > 100 µM (inactive)
- GI50 (SF-295): > 100 µM (inactive)
- GI50 (SF-539): > 100 µM (inactive)
- GI50 (SK-MEL-28): > 100 µM (inactive)
- GI50 (SK-MEL-2): > 100 µM (inactive)
- GI50 (SK-MEL-5): > 100 µM (inactive)
- GI50 (SK-OV-3): > 100 µM (inactive)
- GI50 (SN12C): > 100 µM (inactive)
- GI50 (SNB-75): > 100 µM (inactive)
- GI50 (SNB-78): > 100 µM (inactive)
- GI50 (TK-10): > 100 µM (inactive)
- GI50 (U-251): > 100 µM (inactive)
- GI50 (UACC-257): > 100 µM (inactive)
- GI50 (UO-31): > 100 µM (inactive)
- GI50 (XF498): 97.1 µM (inactive)
